{"source": "paper PMC5540198", "about": "“A phase I trial of ganetespib in combination with paclitaxel and trastuzumab in patients with human epidermal growth factor receptor-2 (HER2)-positive metastatic breast cancer” (Breast Cancer Research : BCR, 2017)", "key": {"[1]": {"tested_on": "HER2-positive breast cancer", "design": "method as in PMID 23580070", "settings": "in combination with trastuzumab; cited from earlier work"}, "[2]": {"tested_on": "HER2-positive and ER-positive breast cancer", "design": "method as in PMID 18430202", "settings": "intravenous, single agent; among 10 patients; cited from earlier work"}, "[3]": {"tested_on": "patients with HER2-positive metastatic breast cancer", "test": "Phase I dose-escalation trial: safety, DLT and RP2D of ganetespib with paclitaxel and trastuzumab", "assay_type": "in vivo, human", "excerpt": "Patients were eligible if they were aged ≥ 18 years, had locally advanced or metastatic HER2-positive disease (defined as FISH ratio ≥ 2.0 or immunohistochemistry (IHC) 3+), ECOG ≤ 2, measurable disease per RECIST 1.1 [23], and adequate end organ function (defined as hemoglobin ≥ 9 g/dl, absolute neutrophil count (ANC) ≥ 1.5 × 10^9/L, platelets ≥ 100 × 10^9/L, bilirubin ≤ 1.5 upper limit of normal (ULN), aspartate aminotransferase (AST) and alanine aminotransferase (ALT) ≤ 2.5 ULN, and serum creatinine ≤ 1.5 ULN). Patients must have received prior trastuzumab and those with estrogen receptor (ER)-positive disease must have received prior endocrine therapy. Any number of prior lines of chemotherapy in the metastatic setting was allowed. Progression on prior treatment with pertuzumab and T-DM1 was required (unless heavily pretreated prior to FDA approval of pertuzumab for first-line treatment of HER2-positive metastatic breast cancer (6/2012) and/or T-DM1 (2/2013)).\nPatients received intravenous infusions of trastuzumab and paclitaxel with ganetespib on days 1, 8, and 15 and of trastuzumab and paclitaxel on day 22 of a 28-day cycle. The sequence of administration was trastuzumab (2 mg/kg) followed by paclitaxel (80 mg/m^2) followed by ganetespib. If the patient’s last dose of trastuzumab was >21 days before enrollment, they received a loading dose of trastuzumab at 4 mg/kg over 90 minutes. Ganetespib was then administered intravenously over 60 minutes. The starting dose of ganetespib was 100 mg/m^2, and if there were no DLTs the next cohort would escalate to 150 mg/m^2. A further dose level of 125 mg/m^2 was incorporated in the circumstance of good tolerance of the 100 mg/m^2 but poor tolerance of the 150 mg/m^2 dose levels. There was no dose escalation for paclitaxel and trastuzumab. Therapy was continued until disease progression or unacceptable toxicity.\nPatients were examined and assessed for toxicities during and prior to each cycle. Toxicity was graded according to National Cancer Institute (NCI) CTCAE version 4.0 (http://ctep.cancer.gov/protocolDevelopment/electronic_applications/ctc.htm#ctc_40). Patients were evaluated for DLT during cycle 1. DLT was defined as any drug-related grade ≥ 4 nonhematologic adverse events (AEs) or any grade 3 nonhematologic AEs not improving to baseline or grade ≤ 1 by day 14; grade 4 neutropenia lasting ≥ 7 days, or febrile neutropenia, grade 4 thrombocytopenia, or any grade 3 thrombocytopenia that has not recovered to grade ≤ 2 by day 7; or any treatment-related toxicity prompting a dose reduction of ganetespib during the DLT observation period.\nPaclitaxel dose reductions were not permitted during the DLT observation period. For dosing beyond cycle 1, paclitaxel was held if patients experienced any other grade 3 or 4 toxicity thought to be related to paclitaxel until symptoms resolved to grade 1/baseline grade. One dose reduction for paclitaxel to 65 mg/m^2 was permitted."}, "[4]": {"tested_on": "HER2-positive metastatic breast cancer", "test": "Phase I trial: anti-tumor activity by RECIST 1.1", "assay_type": "in vivo, human", "experimental": "The sequence of administration was trastuzumab (2 mg/kg) followed by paclitaxel (80 mg/m^2) followed by ganetespib. If the patient’s last dose of trastuzumab was >21 days before enrollment, they received a loading dose of trastuzumab at 4 mg/kg over 90 minutes. Ganetespib was then administered intravenously over 60 minutes. The starting dose of ganetespib was 100 mg/m^2, and if there were no DLTs the next cohort would escalate to 150 mg/m^2. A further dose level of 125 mg/m^2 was incorporated in the circumstance of good tolerance of the 100 mg/m^2 but poor tolerance of the 150 mg/m^2 dose levels. There was no dose escalation for paclitaxel and trastuzumab. Therapy was continued until disease progression or unacceptable toxicity. Patients were evaluated for response initially after two cycles and then every three cycles thereafter using the RECIST criteria. All patients with PR or complete response (CR) were required to have confirmation of response 4 weeks after the criteria for response were first met. The best overall response was defined as the best response recorded from the start of treatment until disease progression or withdrawal from the study. […] The CBR was defined as the proportion of patients whose best overall response, according to RECIST, was CR, PR, or SD lasting for at least 24 weeks."}, "metastatic breast cancer": {"tested_on": "metastatic breast cancer", "design": "method as in PMID 24512858", "settings": "cited from earlier work"}, "[5]": {"tested_on": "HER2-positive metastatic breast cancer", "design": "method as in PMID 22781552", "settings": "plus trastuzumab; cited from earlier work"}, "[6]": {"tested_on": "trastuzumab-refractory HER2-positive metastatic breast cancer", "design": "method as in PMID 18048823, PMID 21558407", "settings": "in combination with trastuzumab; cited from earlier work"}, "[7]": {"test": "Pharmacokinetics of paclitaxel in plasma, cycle 1 day 8 to day 9", "assay_type": "in vivo, human", "experimental": "Blood samples for determination of plasma concentrations of paclitaxel were collected on cycle 1, day 8 through cycle 1, day 9 at the following time points after trastuzumab infusion and relative to the start of the paclitaxel infusion: 5 minutes prior to treatment, and 30 and 60 minutes (immediately prior to stopping the paclitaxel infusion pump and starting the ganetespib infusion) after start of paclitaxel infusion. Blood samples were also collected at the following time points after starting ganetespib infusion: 1.5, 2, 4, 7, 21, 24, 27, and 31 hours. Each blood sample (3–5 ml) was collected in sodium heparin tubes and transferred into two polypropylene tubes (1 ml each) and stored at –80 °C. PK were performed in collaboration with Synta Pharmaceuticals, Inc. PK parameters of paclitaxel (such as the area under the curve (AUC) and the maximum serum concentration (Cmax)) were examined descriptively to evaluate the effect of ganetespib on these measures."}, "[8]": {"design": "method as in earlier work", "settings": "PET agent labelled with ^124I; cited from earlier work"}}, "note": "Where two headings read alike, the source gives them in different places. Marks after values point to notes of the source that are not given here.", "data": [{"smiles": "C=CCNc1c(O)cc2c(O)c1C[C@@H](C)C[C@H](OC)[C@H](O)[C@@H](C)/C=C(\\C)[C@H](OC(N)=O)[C@@H](OC)/C=C\\C=C(/C)C(=O)N2", "note": "[retaspimycin]", "values": [{"measurement": "patients with stable disease", "setting": "[1]", "value": 62, "unit": "%"}]}, {"smiles": "CCNC(=O)c1noc(-c2cc(C(C)C)c(O)cc2O)c1-c1ccc(CN2CCOCC2)cc1", "note": "[NVP-AUY922]", "values": [{"measurement": "confirmed PR by RECIST, number", "setting": "[2]", "value": "one"}, {"measurement": "partial metabolic responses on FDG-PET, number", "setting": "[2]", "value": "two"}]}, {"smiles": "CC(C)c1cc(-c2n[nH]c(=O)n2-c2ccc3c(ccn3C)c2)c(O)cc1O", "note": "[ganetespib, 5-(2,4-dihydroxy-5-(1-methylethyl)phenyl)-4-(1-methyl-1H-indol-5-yl)-2,4-dihydro-(1,2,4)triazol-3-one]", "values": [{"measurement": "recommended phase II dose (RP2D)", "setting": "[3]; in combination with weekly paclitaxel plus trastuzumab", "value": 150, "unit": "mg/m^2"}, {"measurement": "anemia, grade 1/2, drug-related", "setting": "[3]; nine patients", "value": 44, "unit": "%"}, {"measurement": "diarrhea, grade 1/2, drug-related", "setting": "[3]; nine patients", "value": 78, "unit": "%"}, {"measurement": "elevated AST or ALT, grade 1/2, drug-related", "setting": "[3]; nine patients", "value": 32, "unit": "%"}, {"measurement": "fatigue, grade 1/2, drug-related", "setting": "[3]; nine patients", "value": 67, "unit": "%"}, {"measurement": "nausea, grade 1/2, drug-related", "setting": "[3]; nine patients", "value": 32, "unit": "%"}, {"measurement": "rash, grade 1/2, drug-related", "setting": "[3]; nine patients", "value": 32, "unit": "%"}, {"measurement": "grade 4 AEs related to ganetespib", "setting": "[3]; nine patients, CTCAE 4.0", "value": "no grade 4 AEs"}, {"measurement": "patients with dose-limiting toxicities (DLTs)", "setting": "[3]; nine patients, cycle 1, 100 and 150 mg/m^2 cohorts", "value": "None"}, {"measurement": "Grade 3 ALT, increased, N patients", "setting": "[3]; of nine patients", "value": 1}, {"measurement": "Grade 3 phosphorus, decreased, N patients", "setting": "[3]; of nine patients", "value": 1}, {"measurement": "Grade 3 pruritus, N patients", "setting": "[3]; of nine patients", "value": 1}, {"measurement": "overall response rate (ORR), confirmed partial responses", "setting": "[4]; ganetespib 100 or 150 mg/m^2 days 1, 8, 15 with weekly paclitaxel 80 mg/m^2 and trastuzumab 2 mg/kg, 2/9 patients, both in 150 mg/m^2 cohort", "value": 22, "unit": "%"}, {"measurement": "clinical benefit rate (CBR: CR, PR or SD at least 24 weeks)", "setting": "[4]; triplet regimen, 4/9 patients", "value": 44, "unit": "%"}, {"measurement": "median progression-free survival", "setting": "[4]; triplet regimen, nine patients", "value": 20, "unit": "weeks"}, {"measurement": "progression-free survival, range", "setting": "[4]; triplet regimen, nine patients", "value": "8–55 weeks"}, {"measurement": "ORR", "setting": "metastatic breast cancer; single-agent ganetespib", "value": 15, "unit": "%"}, {"measurement": "cases of SD in HER2-positive patients, number", "setting": "metastatic breast cancer; single-agent, HER2-positive metastatic breast cancer", "value": "six"}, {"measurement": "confirmed PRs, number", "setting": "metastatic breast cancer; single-agent, HER2-positive, trastuzumab-refractory metastatic breast cancer", "value": "two"}, {"measurement": "SDs, total number", "setting": "metastatic breast cancer; single-agent, six HER2-positive and one TNBC", "value": "seven"}]}, {"smiles": "CO[C@H]1/C=C\\C=C(/C)C(=O)NC2=CC(=O)C(NCCN(C)C)=C(C[C@@H](C)C[C@H](OC)[C@H](O)[C@@H](C)/C=C(\\C)[C@@H]1OC(N)=O)C2=O", "note": "[alvespimycin]", "values": [{"measurement": "partial response (PR), number of cases", "setting": "[5]", "value": "one"}, {"measurement": "stable disease (SD) lasting >6 months, number of cases", "setting": "[5]", "value": "six"}]}, {"smiles": "C=CCNC1=C2C[C@@H](C)C[C@H](OC)[C@H](O)[C@@H](C)/C=C(\\C)[C@H](OC(N)=O)[C@@H](OC)/C=C\\C=C(/C)C(=O)NC(=CC1=O)C2=O", "note": "[tanespimycin]", "values": [{"measurement": "clinical benefit rate (CBR)", "setting": "[6]", "value": 59, "unit": "%"}, {"measurement": "response rate", "setting": "[6]", "value": 22, "unit": "%"}]}, {"smiles": "CC(=O)O[C@H]1C(=O)[C@@]2(C)[C@H]([C@H](OC(=O)c3ccccc3)[C@]3(O)C[C@H](OC(=O)[C@H](O)[C@@H](NC(=O)c4ccccc4)c4ccccc4)C(C)=C1C3(C)C)[C@]1(OC(C)=O)CO[C@@H]1C[C@@H]2O", "note": "[paclitaxel]", "values": [{"measurement": "Grade 3 blurred vision/grade 3 dry eyes (in same patient), N patients", "setting": "[3]; of nine patients, attributable to paclitaxel", "value": "1^a"}, {"measurement": "Tmax", "setting": "[7]; human, in vivo, iv", "value": "1.0 ± 0.0", "unit": "h"}, {"measurement": "half-life", "setting": "[7]; human, in vivo, iv", "value": "13.6 ± 3.3", "unit": "h"}, {"measurement": "Tmax", "setting": "[7]; human, in vivo, iv, Tmax", "value": "0.8 ± 0.3", "unit": "h"}, {"measurement": "Cmax", "setting": "[7]; human, in vivo, iv, paclitaxel 80 mg/m^2 i.v., ganetespib 100 mg/m^2, n=3", "value": "3340 ± 1270", "unit": "ng/mL"}, {"measurement": "T1/2", "setting": "[7]; paclitaxel 80 mg/m^2 i.v., ganetespib 100 mg/m^2, n=3", "value": "12.9 ± 0.4", "unit": "h"}]}, {"smiles": "CC(C)NCCCn1c(Sc2cc3c(cc2[124I])OCO3)nc2c(N)ncnc21", "note": "[^124I-PU-H71]", "values": [{"measurement": "half-life", "setting": "[8]", "value": 96.5, "unit": "h"}]}]}
